Measurements: US5834453A, “Methods for the manufacture and use of antimicrobial sterol conjugates” (Lehigh University, priority 1997, dated 1998)
≈ marks a conversion by molar mass, not a printed value. Entries after “also recorded” stand apart in the source; their conditions may differ.

Assays:
[1] = test system: S. aureus (29213); settings: S. aureus ATCC 29213; as reported in the literature; cited from earlier work
[2] = test system: P. aeruginosa (2853); settings: P. aeruginosa ATCC 27853; as reported in the literature; cited from earlier work
[3] = test system: S. marcescens (13880); settings: known; cited from earlier work
[4] = test system: various groups of microorganisms; settings: broad spectrum of microorganisms; cited from earlier work
[5] = test system: P. vulgaris; settings: P. vulgaris ATCC 13883; as reported in the literature; cited from earlier work
[6] = test system: A. fumigatus (H1120); assay: MIC, micro-broth dilution; assay type: cell-based; settings: Aspergillus fumigatus, 35° C., 24 hours, read-out: ANTIMICROBIAL ACTIVITY (MIC)
Experimental: (§1) The antimicrobial activity of the compounds according to the present invention were compared with the results obtained for squalamine as reported in Proc. Nat. Acad. Sci. USA 90:1354 (1993), supra, the disclosure of which is incorporated in toto herein. The data reported in the following table is the minimum inhibitory concentration (MIC) required for complete inhibition of microbial growth. The MIC was determined utilizing known micro-broth dilution methods in which inocula of 10^6 /ml of the test organism were incubated in 0.5× trypticase soy broth at 35° C. for 24 hours. MIC's were also tested under various pH conditions, with calcium chloride or magnesium chloride, or with immobilized horse serum.
(§2) The numbers in parentheses contained in the table correspond to accession numbers with the American Type Culture Collection (reference strains were either obtained from the American Type Culture Collection or from the Microbiology Laboratory at Memorial Sloan-Kettering Cancer Center; Bacterial strains were maintained on Columbia 5% sheep blood agar plates, and fungi were maintained on Sabouraud Dextrose agar plates).

[7] = test system: A. fumigatus (H29709); assay: MIC, micro-broth dilution; assay type: cell-based; settings: Aspergillus fumigatus, 35° C., 24 hours, read-out: ANTIMICROBIAL ACTIVITY (MIC)
Experimental: as §1, §2

[8] = test system: C. albicans (90028); assay: MIC, micro-broth dilution; assay type: cell-based; settings: Candida albicans, 35° C., 24 hours, read-out: ANTIMICROBIAL ACTIVITY (MIC)
Experimental: as §1, §2

[9] = test system: C. neoformans (90012); assay: MIC, micro-broth dilution; assay type: cell-based; settings: Cryptococcus neoformans, 24 h, read-out: ANTIMICROBIAL ACTIVITY (MIC)
Experimental: as §1, §2

[10] = test system: C. neoformans (M68979); assay: MIC, micro-broth dilution; assay type: cell-based; settings: Cryptococcus neoformans, 24 h, read-out: ANTIMICROBIAL ACTIVITY (MIC)
Experimental: as §1, §2

[11] = test system: E. cloacae (13047); assay: MIC, micro-broth dilution; assay type: cell-based; settings: Enterobacter cloacae, 35° C., 24 hours, read-out: ANTIMICROBIAL ACTIVITY (MIC)
Experimental: as §1, §2

[12] = test system: E. coli (25922); assay: MIC, micro-broth dilution; assay type: cell-based; settings: Escherichia coli, 35° C., 24 hours, read-out: ANTIMICROBIAL ACTIVITY (MIC)
Experimental: as §1, §2

[13] = test system: E. faecalis (29212); assay: MIC, micro-broth dilution; assay type: cell-based; settings: Enterococcus faecalis, 35° C., 24 hours, read-out: ANTIMICROBIAL ACTIVITY (MIC)
Experimental: as §1, §2

[14] = test system: E. faecium (T6480-9); assay: MIC, micro-broth dilution; assay type: cell-based; settings: Enterococcus faecium, 35° C., 24 hours, read-out: ANTIMICROBIAL ACTIVITY (MIC)
Experimental: as §1, §2

[15] = test system: K. pneumoniae (13883); assay: MIC, micro-broth dilution; assay type: cell-based; settings: Klebsiella pneumoniae, 24 h, read-out: ANTIMICROBIAL ACTIVITY (MIC)
Experimental: as §1, §2

[16] = test system: P. aeruginosa (10145); assay: MIC, micro-broth dilution; assay type: cell-based; settings: Pseudomonas aeruginosa, 35° C., 24 hours, read-out: ANTIMICROBIAL ACTIVITY (MIC)
Experimental: as §1, §2

[17] = test system: P. aeruginosa (2853); assay: MIC, micro-broth dilution; assay type: cell-based; settings: Pseudomonas aeruginosa, 24 h, read-out: ANTIMICROBIAL ACTIVITY (MIC)
Experimental: as §1, §2

[18] = test system: P. vulgaris (13315); assay: MIC, micro-broth dilution; assay type: cell-based; settings: Proteus vulgaris, 35° C., 24 hours, read-out: ANTIMICROBIAL ACTIVITY (MIC)
Experimental: as §1, §2

[19] = test system: S. agalactiae (13813); assay: MIC, micro-broth dilution; assay type: cell-based; settings: Streptococcus agalactiae, 35° C., 24 hours, read-out: ANTIMICROBIAL ACTIVITY (MIC)
Experimental: as §1, §2

[20] = test system: S. aureus (25923); assay: MIC, micro-broth dilution; assay type: cell-based; settings: Staphylococcus aureus, 35° C., 24 hours, read-out: ANTIMICROBIAL ACTIVITY (MIC)
Experimental: as §1, §2

[21] = test system: S. aureus (29213); assay: MIC, micro-broth dilution; assay type: cell-based; settings: Staphylococcus aureus, 24 h, read-out: ANTIMICROBIAL ACTIVITY (MIC)
Experimental: as §1, §2

[22] = test system: S. aureus (H20809); assay: MIC, micro-broth dilution; assay type: cell-based; settings: Staphylococcus aureus, 24 h, read-out: ANTIMICROBIAL ACTIVITY (MIC)
Experimental: as §1, §2

[23] = test system: S. epidermidis (12228); assay: MIC, micro-broth dilution; assay type: cell-based; settings: Staphylococcus epidermidis, 35° C., 24 hours, read-out: ANTIMICROBIAL ACTIVITY (MIC)
Experimental: as §1, §2

[24] = test system: S. marcescens (13880); assay: MIC, micro-broth dilution; assay type: cell-based
Experimental: as §1, §2

[25] = test system: S. pneumoniae (6305); assay: MIC, micro-broth dilution; assay type: cell-based; settings: Streptococcus pneumoniae, 35° C., 24 hours, read-out: ANTIMICROBIAL ACTIVITY (MIC)
Experimental: as §1, §2

[26] = test system: S. pyrogenes (19615); assay: MIC, micro-broth dilution; assay type: cell-based; settings: 24 h, read-out: ANTIMICROBIAL ACTIVITY (MIC)
Experimental: as §1, §2

[27] = Hemolytic activity, minimal hemolytic concentration (MHC); assay type: cell-based, sheep; settings: sheep red blood cells, 24 hours at 37° C. in saline
Experimental: (§3) Hemolytic activity of the squalamine mimics according to the present invention were also studied by incubating sheep red blood cells for 24 hours at 37° C. in saline (final concentration of 0.5%) with or without respective concentrations of the squalamine mimics. The minimal hemolytic concentration (MHC) was determined as the lowest concentration of a mimic that raised visible hemolysis.

[28] = test system: sheep red blood cells; assay: as above; assay type: cell-based
Experimental: as §3

[29] = test system: Escherichia coli; assay: Bactericidal action; assay type: cell-based
[30] = test system: Pseudomonas aeruginosa; assay: Bactericidal action; assay type: cell-based
[31] = test system: Staphylococcus aureus; assay: Bactericidal action; assay type: cell-based
[32] = test system: gram negative rods; assay: Enhancement of the antimicrobial activity of rifampin; assay type: cell-based; settings: subinhibitory concentrations of SM-7
[33] = test system: various groups of microorganisms; assay: Antimicrobial activity (MIC), all microorganisms tested; assay type: cell-based
Experimental: as §1, §2

[34] = test system: bacteria; assay: Loss of antimicrobial/bactericidal action in presence of albumin; assay type: cell-based; settings: 12.5 μg/ml of SM-7, 40 mg/ml of bovine serum albumin
[35] = test system: gram negative rods; assay: Antimicrobial activity (MIC), gram negative rods; assay type: cell-based; settings: of all the mimics tested
Experimental: as §1

In the case of `CC(C)C(CC[C@@H](C)[C@H]1CC[C@H]2[C@@H]3[C@H](O)C[C@H]4C[C@@H](NCCCNCCCCN)CC[C@]4(C)[C@H]3CC[C@]12C)OS(=O)(=O)O` (stereo partly drawn) [squalamine, 3β-N-1-{N-[3-(4-aminobutyl)]-1,3-diaminopropane}-7α,24.zeta.-dihydroxy-5α-cholestane 24-sulfate], the MIC of squalamine [1] is listed as 1 to 2 µg/mL, the MIC of squalamine [2] is listed as 4 to 8 µg/mL and the “resistance of S. marcescens to squalamine” value [3] is listed as “known to be resistant to squalamine”. The “antimicrobial activity of squalamine (in words)” value [4] was “potent antimicrobial activity against a broad spectrum of microorganisms” and the MIC of squalamine [5] was 4 to 8 µg/mL.

For `C[C@H](CCC(=O)NCCCNCCCCNCCCN)[C@H]1CC[C@H]2[C@@H]3CC[C@@H]4C[C@H](O)CC[C@]4(C)[C@H]3C[C@H](O)[C@]12C` [SM-7, deoxycholic acid-spermine conjugate], the MIC [6] was 12.5 µg/mL (≈ 21.7 µM), the MIC [7] was 12.5 µg/mL (≈ 21.7 µM) and the MIC [8] was 3.13 µg/mL (≈ 5.43 µM). The MIC [9] was 0.78 µg/mL (≈ 1.35 µM), the MIC [10] was 1.56 µg/mL (≈ 2.7 µM) and the MIC [11] was 12.5 µg/mL (≈ 21.7 µM). For the same compound, the MIC [12] was 3.13 µg/mL (≈ 5.43 µM), the MIC [13] was 3.13 µg/mL (≈ 5.43 µM) and the MIC [14] was 6.25 µg/mL (≈ 10.8 µM). It also gave an MIC [15] of 3.13 µg/mL (≈ 5.43 µM), an MIC [16] of 6.25 µg/mL (≈ 10.8 µM) and an MIC [17] of 3.13 µg/mL (≈ 5.43 µM). For the same compound, the MIC [18] was 3.13 µg/mL (≈ 5.43 µM), the MIC [19] was 3.13 µg/mL (≈ 5.43 µM) and the MIC [20] was 1.56 µg/mL (≈ 2.7 µM). It also gave an MIC [21] of 1.56 µg/mL (≈ 2.7 µM), an MIC [22] of 1.56 µg/mL (≈ 2.7 µM) and an MIC [23] of 0.78 µg/mL (≈ 1.35 µM). For the same compound, the MIC ([24]; Serratia marcescens, 24 h, read-out: ANTIMICROBIAL ACTIVITY (MIC)) was 25 µg/mL (≈ 43.3 µM), the “activity against S. marcescens” value ([24]; in words) was “found even against S. marcescens; also recorded: effective against S. marcescens” and the MIC [25] was 3.13 µg/mL (≈ 5.43 µM). The MIC [26] was 0.78 µg/mL (≈ 1.35 µM), the minimal hemolytic concentration (MHC) at 24 h [27] was 12.5 µg/mL and the “hemolytic activity (in words)” value [28] was “unwanted hemolytic activity”. The “antibacterial action (bactericidal)” value [29] was “bactericidal”, the “antibacterial action (bactericidal)” value [30] was “bactericidal” and the “antibacterial action (bactericidal)” value [31] was “bactericidal”. For the same compound, the “enhancement of antimicrobial activity of rifampin” value [32] was “markedly enhanced the antimicrobial activity of rifampin against gram negative rods”, the “antimicrobial activity (in words)” value [33] was “highly active; also recorded: more activity than SM-8, SM-14, and SM-22” and the “inhibition of (bactericidal) activity by albumin” value [34] was “completely inhibited”. The “potency ranking against gram negative rods” value [35] was “most potent activity against gram negative rods of all the mimics tested”.
